In patent publication US20040005342A1, “Topical administration of ascorbic acid to reinforce the cohesion of the dermo-epidermal junction” (SOCIETE L'OREAL S.A., priority 2002, published 2004):

Legend:
Assay type in all cases: cell-based, human
[1] = system: fibroblasts in the lattice of reconstructed skin; assay: Reconstructed skin grown with vitamin C in the culture medium: number of fibroblasts; conditions: vitamin C in culture medium throughout the phase of emersion
Text: This increase is associated with a greater production of certain proteins of the extracellular matrix, in particular in the sub-epidermal zone. The most spectacular results are found in this region of the dermo-epidermal junction, with a more perpendicular arrangement of the basal keratinocytes and an increased synthesis of major components of the basal membrane, for instance tenascin and collagen VII.

tenascin = assay: Immunofluorescence of tenascin in reconstructed skin sections
collagen VII = assay: Immunofluorescence of collagen VII in reconstructed skin sections
[2] = reconstructed skin, vitamin CPMg 2.8′10^−4 M, 7-day emersion phase, × control

## O=C1O[C@H]([C@@H](O)CO)C([O-])=C1OP(=O)([O-])[O-].O=C1O[C@H]([C@@H](O)CO)C([O-])=C1OP(=O)([O-])[O-].[Mg+2].[Mg+2].[Mg+2] [Vitamin C, magnesium ascorbyl phosphate]
[1]
  Number of fibroblasts in the lattice: very large increase
tenascin; microscopic observation, FIG. 2
  Intensity and thickness of the zone of tenascin fluorescence (dermo-epidermal junction and superficial dermis), versus sample without vitamin C: much larger
tenascin; reconstructed skin, vitamin CPMg 2.8′10^−4 M during 7-day emersion phase, image analysis, standardized to identical length of dermo-epidermal junction, control 6.4
  Tenascin fluorescence intensity/unit of length: 11.54 arbitrary units
tenascin; [2]
  Tenascin fluorescence intensity/unit of length, factor versus control: 1.80
Collagen VII; microscopic observation, FIG. 1
  Intensity and thickness of the zone of collagen VII fluorescence at the dermo-epidermal junction, versus sample without vitamin C: much greater
Collagen VII; reconstructed skin, vitamin CPMg 2.8′10^−4 M during 7-day emersion phase, image analysis, normalized to identical length of dermo-epidermal junction, control 1.35
  Collagen VII fluorescence intensity/unit of length: 2.50 arbitrary units
Collagen VII; [2]
  Collagen VII fluorescence intensity/unit of length, factor versus control: 1.85
